This passage reports IC50 results from patent publication US8114885B2, “Chemical compounds” (GlaxoSmithKline LLC, priority 2000, dated 2012).

SMILES strings stand for the structures.

The subject of the test is HUVEC. The experiment in a line: Human Umbilical Vein Endothelial Cell (HUVEC) proliferation assay (BrdU incorporation). Format: cell-based. The note with it: VEGF-stimulated HUVEC, 72 hrs, read-out: Inhibition of HUVEC proliferation IC50. As for the experimental part: Human Umbilical Vein Endothelial Cell (HUVEC) Proliferation Assay (BrdU Incorporation) Materials
HUVEC cells and EGM-MV (Endothelial cell growth medium—microvascular) were purchased from Clonetics (San Diego, Calif.). VEGF and bFGF were purchased from R&D Systems (Minneapolis, Minn.). Anti-BrdU antibody was obtained from Chemicon International (Temecula, Calif.).
HUVECs were routinely maintained in EGM-MV medium and were used within passage 7. HUVECs were plated at a density of 2500 cells/well in M199 medium containing 5% FBS (Hyclone) in type I collagen coated plate (Becton Dickinson). The plate was incubated at 37° C. overnight. The medium was removed by aspiration, and test compounds were added to each well in a volume of 0.1 ml/well in serum-free M199 medium. Compound concentrations ranged from 1.5 nM to 30 micromolar. The plate was incubated for 30 min at 37° C. Another 0.1 ml of serum-free M199 medium containing BSA and VEGF (or bFGF) was added to give a final concentration of 0.1% BSA and 10 ng/ml VEGF (0.3 ng/ml bFGF). The plate was incubated at 37° C. for 72 hrs. BrdU was added to each well after the first 48 hrs to give a concentration of 10 micromolar. The calorimetric ELISA assay was performed according to manufacturer's (Roche Molecular Sciences) instructions, with detection by absorbance reading at 450 nm. Results were plotted as concentration of test compound vs. absorbance to give an IC50 value for inhibition of BrdU incorporation.
On the technique in general: Incorporation of labelled thymidine or its analogues reports DNA synthesis.

As to `CC(=O)Nc1cccc(Nc2nccc(N(C)c3ccc4c(C)n[nH]c4c3)n2)c1` [Example 31, N-[3-({4-[methyl(3-methyl-1H-indazol-6-yl)amino]-2-pyrimidinyl}amino)phenyl]acetamide], the IC50 lay in the range of 1 to 200 nM.
The value for `Cc1n[nH]c2cc(N(C)c3ccnc(Nc4ccc(Cl)c(S(N)(=O)=O)c4)n3)ccc12` [Example 60, 2-chloro-5-({4-[methyl(3-methyl-1H-indazol-6-yl)amino]-2-pyrimidinyl}amino)benzenesulfonamide] was 1 to 200 nM; that for `CCS(=O)(=O)c1ccc(OC)c(Nc2nccc(N(CC#N)c3ccc4c(C)n[nH]c4c3)n2)c1` [Example 45, [{2-[5-(ethylsulfonyl)-2-methoxyanilino]-4-pyrimidinyl}(3-methyl-1H-indazol-6-yl)amino]acetonitrile] was 501 to 1000 nM.
`Cc1nc2cc(N(C)c3ccnc(Nc4cccc(S(N)(=O)=O)c4)n3)ccc2n1C` [Example 74, 3-({4-[(1,2-dimethyl-1H-benzimidazol-5-yl)(methyl)amino]pyrimidin-2-yl}amino)benzenesulfonamide]: the IC50 was in the range of 1 to 200 nM.
Take `CCS(=O)(=O)c1ccc(Nc2nccc(N(C)c3ccc4c(C)n[nH]c4c3)n2)cc1` [Example 57, N^2-[4-(ethylsulfonyl)phenyl]-N^4-methyl-N^4-(3-methyl-1H-indazol-6-yl)-2,4-pyrimidinediamine]: the IC50 was in the range of 201 to 500 nM.
As for `Cc1n[nH]c2cc(N(C)c3ccnc(Nc4ccc(S(N)(=O)=O)cc4)n3)ccc12` [Example 52, 4-({4-[methyl(3-methyl-1H-indazol-6-yl)amino]-2-pyrimidinyl}amino)benzenesulfonamide], the IC50 lay within 1 to 200 nM.
On to `CCS(=O)(=O)c1ccc(OC)c(Nc2nccc(Nc3ccc4c(C)n[nH]c4c3)n2)c1` [Example 55, N^2-[5-(ethylsulfonyl)-2-methoxyphenyl]-N^4-(3-methyl-1H-indazol-6-yl)-2,4-pyrimidinediamine], for which the IC50 lay within 1 to 200 nM.
In the case of `CNS(=O)(=O)c1ccc(OC)c(Nc2ncc(F)c(N(C)c3ccc4c(C)n[nH]c4c3)n2)c1` [Example 2, 3-({5-fluoro-4-[methyl(3-methyl-1H-indazol-6-yl)amino]-2-pyrimidinyl}amino)-4-methoxy-N-methylbenzenesulfonamide], the IC50 lay in the range of 1 to 200 nM.
For `COc1ccc(S(C)(=O)=O)cc1Nc1nccc(N(C)c2ccc3c(C)n[nH]c3c2)n1` [Example 68, N^2-[2-methoxy-5-(methylsulfonyl)phenyl]-N^4-methyl-N^4-(3-methyl-1H-indazol-6-yl)-2,4-pyrimidinediamine], the IC50 fell in the range of 1 to 200 nM.
For `Cc1n[nH]c2cc(N(C)c3ccnc(Nc4cc(S(N)(=O)=O)ccc4Cl)n3)ccc12` [Example 62, 4-chloro-3-({4-[methyl(3-methyl-1H-indazol-6-yl)amino]-2-pyrimidinyl}amino)benzenesulfonamide], the IC50 is 1 to 200 nM.
For `CCS(=O)(=O)NCc1ccc(Nc2nccc(N(C)c3ccc4c(C)n[nH]c4c3)n2)cc1` [Example 58, N-[4-({4-[methyl(3-methyl-1H-indazol-6-yl)amino]-2-pyrimidinyl}amino)benzyl]ethanesulfonamide], the IC50 was 1 to 200 nM.
Turning to `Cc1ccc(Nc2nccc(N(C)c3ccc4c(C)n(C)nc4c3)n2)cc1S(N)(=O)=O` [Example 69, 5-({4-[(2,3-dimethyl-2H-indazol-6-yl)(methyl)amino]pyrimidin-2-yl}amino)-2-methylbenzenesulfonamide], the IC50 was 1 to 200 nM.
The value for `COc1ccc(S(=O)(=O)CC(C)C)cc1Nc1nccc(Nc2ccc3c(C)n[nH]c3c2)n1` [Example 30, N^2-[5-(isobutylsulfonyl)-2-methoxyphenyl]-N^4-(3-methyl-1H-indazol-6-yl)-2,4-pyrimidinediamine] was 501 to 1000 nM.
As to `CCC(=O)c1ccc(OC)c(Nc2nccc(Nc3ccc4c(C)n[nH]c4c3)n2)c1` [Example 41, 1-[4-methoxy-3-({4-[(3-methyl-1H-indazol-6-yl)amino]-2-pyrimidinyl}amino)phenyl]-1-propanone], the IC50 was 501 to 1000 nM.
`CN(c1ccc2c(c1)nc(Cc1ccccc1)n2C)c1ccnc(Nc2cccc(S(N)(=O)=O)c2)n1` [Example 75, 3-({4-[(2-benzyl-1-methyl-1H-benzimidazol-5-yl)(methyl)amino]pyrimidin-2-yl}amino)benzenesulfonamide]: the IC50 is 1 to 200 nM.
As to `Cc1n[nH]c2cc(N(C)c3nc(Nc4ccc(S(C)(=O)=O)cc4)ncc3F)ccc12` [Example 7, 5-fluoro-N^4-methyl-N^4-(3-methyl-1H-indazol-6-yl)-N^2-[4-(methylsulfonyl)phenyl]-2,4-pyrimidinediamine], the IC50 is 201 to 500 nM.
For `Cc1n[nH]c2cc(N(C)c3ncnc(Nc4cccc(S(C)(=O)=O)c4)n3)ccc12` [Example 19, N^2-methyl-N^2-(3-methyl-1H-indazol-6-yl)-N^4-[3-(methylsulfonyl)phenyl]-1,3,5-triazine-2,4-diamine] the value was 201 to 500 nM; for `Cc1n[nH]c2cc(N(C)c3ccnc(Nc4ccc(C(N)=O)cc4)n3)ccc12` [Example 48, 4-({4-[methyl(3-methyl-1H-indazol-6-yl)amino]-2-pyrimidinyl}amino)benzamide], 1 to 200 nM.
On to `Cc1ccc(Nc2ncnc(N(C)c3ccc4c(C)n(C)nc4c3)n2)cc1S(N)(=O)=O` [Example 79, 5-({4-[(2,3-dimethyl-2H-indazol-6-yl)(methyl)amino]-1,3,5-triazin-2-yl}amino)-2-methylbenzenesulfonamide], for which the IC50 lay within 201 to 500 nM.
Regarding `Cc1c2ccc(N(C)c3ccnc(Nc4cccc(CS(C)(=O)=O)c4)n3)cc2nn1C` [Example 39, N^4-(2,3-dimethyl-2H-indazol-6-yl)-N^4-methyl-N^2-{3-[(methylsulfonyl)methyl]phenyl}-2,4-pyrimidinediamine], the IC50 was in the range of 1 to 200 nM.
In the case of `CCS(=O)(=O)c1ccc(OC)c(Nc2nccc(N(C)c3ccc4c(C)n(C)nc4c3)n2)c1` [Example 40, N^4-(2,3-dimethyl-2H-indazol-6-yl)-N^2-[5-(ethylsulfonyl)-2-methoxyphenyl]-N^4-methyl-2,4-pyrimidinediamine], the IC50 is 1 to 200 nM.
For the compound `Cc1n[nH]c2cc(N(C)c3ccnc(Nc4cccc(S(=O)(=O)NC(C)C)c4)n3)ccc12` [Example 24, N-isopropyl-3-({4-[methyl(3-methyl-1H-indazol-6-yl)amino]-2-pyrimidinyl}amino)benzenesulfonamide], the IC50 was 1 to 200 nM.
`Cc1n[nH]c2cc(N(C)c3nc(Nc4cccc(CS(=O)(=O)C(C)C)c4)ncc3F)ccc12` [Example 12, 5-fluoro-N^2-{3-[(isopropylsulfonyl)methyl]phenyl}-N^4-methyl-N^4-(3-methyl-1H-indazol-6-yl)-2,4-pyrimidinediamine]: the IC50 fell in the range of 1 to 200 nM.
Consider `Cc1n[nH]c2cc(N(C)c3ccnc(Nc4cccc(S(=O)(=O)NC5CC5)c4)n3)ccc12` [Example 25, N-cyclopropyl-3-({4-[methyl(3-methyl-1H-indazol-6-yl)amino]-2-pyrimidinyl}amino)benzenesulfonamide], for which the IC50 lay in the range of 1 to 200 nM.
For `COc1ccc(S(=O)(=O)Nc2cccc(Nc3nccc(N(C)c4ccc5c(C)n[nH]c5c4)n3)c2)cc1` [Example 42, 4-methoxy-N-[3-({4-[methyl(3-methyl-1H-indazol-6-yl)amino]-2-pyrimidinyl}amino)phenyl]benzenesulfonamide], the IC50 lay within 201 to 500 nM.
